Source: patent US12646011B2, “Methods and nutritional formulations to increase the efficacy and reduce the side effects of cancer treatment” (UNIVERSITY OF SOUTHERN CALIFORNIA, priority 2009, dated 2026)

Columns and labels:
[1] = test system: breast cancer cells (4T1); test: In vitro fasting (STS) and chemotherapy, MTT survival, 4T1; assay type: cell-based, murine; settings: for sensitization by serum from fasted mice: versus serum from mice fed ad lib, MTT
Method: To model fasting in vitro, cancer cells were incubated in media containing serum collected from mice either fed ad lib or fasted for 48 hours. […] Because pronounced glucose and growth factor reduction (e.g., the 75% reduction in the growth factor IGF-I) are two key extracellular responses to fasting, cells were incubated in different glucose and serum concentrations based on blood glucose measurements from normally fed and fasted mice (FIG. 31), i.e., incubation in low glucose (0.5 g/L) with low serum (1% FBS), or normal glucose (1.0 and 2.0 g/L for human and murine cell lines respectively) with normal serum (10% FBS) for 24 hours before and also during drug treatment (FIG. 32).
4T1-luc murine breast cancer cells were purchased from SibIech (Brookfield, CT). B16-fluc murine melanoma cells were provided by Noah Craft (UCLA). GL26 murine glioma, U87-MG human glioblastoma cells were provided by Thomas Chen (USC). PC3 and 22RV1 human prostate cancer cells were provided by Pinchas Cohen (UCLA). MCF-7 and […] human breast cancer cells and HeLa human cervical cancer cells were provided by Amy Lee (USC). LOVO human colon cancer cells were provided by Darryl Shibata (USC). NXS2 and Neuro-2a murine neuroblastoma, human ACN and SH-SY5Y neuroblastoma, OVCAR human ovarian carcinoma, MZ-MEL human melanoma, A431 epidermoid carcinoma cells were routinely cultured in the Laboratory of Oncology of Gaslini Institute. 4T1 cells were stably transfected with LC3-GFP, which was a kind gift from Jae Jung at USC, for autophagy studies. All cells were routinely maintained in DMEM 10% FBS at 37° C., 5% CO2. To inhibit autophagy cells were treated with 5 μM chloroquine (CQ) for 48 hours during in vitro STS. To modulate HO-1 activity, 4T1 cells were treated with 10 μM hemin (Sigma) or 20 μM zinc protoporphyrin (ZnPP; Sigma) for 24 hours prior to and 24 hours during chemotherapy treatment.
In vitro chemotherapy was performed by treating cells in medium containing chemotherapy for 24 hours. Optimum drug doses were determined for each individual cell line. For in vivo studies, DXR was injected intravenously via lateral tail veins, and CP was injected intraperitoneally.
Cellular fasting was done by glucose and/or serum restriction which was based on blood glucose measurements in fasted and normally fed mice; the lower level approximated to 0.5 g/L. and the upper level to 2.0 g/L. For human cell lines, normal glucose was considered as 1.0 g/L. Cells were washed twice with PBS before changing to fasting medium.
Cytotoxicity was measured by the ability to reduce methylthiazolyldiphenyl-tetrazolium bromide (MTT). Briefly, MTT was prepared at 5 mg/ml in PBS, diluted to a final concentration of 0.5 mg/ml for assays, and incubated for 3-4 hours at 37° C. […] Survival was presented as percentage of MTT reduction level of treated cells to control cells. Absorbance was read at 570 nm using a microplate reader SpectraMax 250 (Molecular Devices) and SoftMax Pro 3.0 software (Molecular Devices).

[2] = test system: 4T1 breast cancer cells; settings: glucose 0.5 vs 2.0 g/L, 1% FBS
Method: (§3) To determine the mechanisms responsible for this STS-dependent sensitization, the effect of low glucose on DNA single and double strand breaks in cancer cells exposed to chemotherapy by the comet assay was studied.
(§4) Cells were diluted to 10^5/ml in culture medium (DMEM/F12 with 10% FBS), and treated with 50 μM DXR for 1 hour at 37° C. Cells were then washed once with ice cold PBS and subject to CometAssay (Trevigen, Inc, Gaithersburg, MD) according to the manufacturer's recommended procedure. Comet images were acquired with a Nikon Eclipse TE300 fluorescent microscope and analyzed with the Comet Score software (TriTek Corp., ver1.5). 100-300 cells were scored for each genotype/treatment group.

[3] = test system: 4T1 breast cancer; settings: two fasting cycles; 20 days after the last treatment
Method: Short-term starvation (STS), or fasting, was achieved by complete food withdrawal for 48-60 hours with continued access to water. […] Fasting in the glioma model was applied only once due to the unusually rapid tumor growth in the control (ad lib, no chemotherapy) group.
To establish a subcutaneous cancer mouse model, 12 week-old female BALB/c, 12-week-old female and male C57BL/6 mice, and 7-week-old Nude mice were injected with 4T1 breast cancer cells, B16 melanoma and GL26 glioma cells, and ACN human neuroblastoma cells, respectively. For metastatic mouse models of cancer, 12-week-old female BALB/c, 12-week-old female and male C57BL/6 mice were injected intravenously via lateral tail veins with 2×105 4T1, B16, GL26 cells, respectively, and 6-week-old female A/J mice were injected via lateral tail veins with 2×105 NXS2, and 1×10^6 Neuro-2a cells. […] Body weights were determined periodically and tumor size was measured using a digital vernier caliper. Tumor volume was calculated using the following equation: tumor volume (mm3)=(length×width×height)×π/6, where the length, width and height are in mm.
Animals were fasted for a total of 48-60 hours by complete deprivation of food but with free access to water. […] Body weight was measured immediately before and after fasting.

[4] = test system: prostate adenocarcinoma; test: PSA level, cases 3 and 7; assay type: in vivo, human
Method: A person who was diagnosed in July of 2000 with bilateral prostate adenocarcinoma, Gleason score 7 and PSA level of 5.8 ng/ml. A prostatectomy performed in September of 2000 led to undetectable levels of PSA until January 2003 when it rose to 1.4 ng/ml. Leuprolide acetate together with bicalutamide and finasteride were prescribed. […] Different drugs including triptorelinpamoate, nilutamide, thalidomide, CP and ketoconazole were utilized to control the disease. In 2007 the patient's PSA level reached 9 ng/ml and new metastases were observed during a bone scan. […] After stopping the chemotherapy treatments, their PSA rose rapidly. DTX at 75 mg/m2 in a 3-weekly cycle was the regimen elected and once again the patient suffered significant side effects (FIG. 5). In June 2008, Chemotherapy stopped. The patient was enrolled in a phase III clinical trial with abiraterone acetate, a drug that can selectively block CYP17, a microsomal enzyme that catalyzes a series of reactions critical to nongonadal androgen biosynthesis (Derek Raghavan and Eric A. Klein J.C.O 2008). […] This time the patient opted to fast prior to chemotherapy. […] In agreement to the patient's experience, blood readouts were consistently stable and remained within normal range throughout the treatments (FIGS. 4A-G). During the last three cycles, besides fasting the patient applied testosterone (cream 1%) for five days prior to chemotherapy.
As a consequence the PSA level along with testosterone level increased dramatically.
A person who was diagnosed in July 1998 with prostate adenocarcinoma, Gleason score 8. […] In 1998, the patient received leuprolide acetate and bicalutamide for the first time. In September 1999, those drugs wore off and they were put on finasteride. […] They started the second cycle with leuprolide acetate and also received High Dose Rate (HDR) brachytherapy and external beam radiation with Intensity Modulated Radiation Therapy (IMRT). Complementary treatment with multiple drugs such as bicalutamide, triptorelinpamoate and nandrolone was applied in order to control the disease. However, their PSA level increased quickly each time the treatment was halted. […] The patient decided to fast 60-66 hours prior to and 8-24 hours followed chemotherapy (Table 3).

[5] = Self-reported side effects after chemotherapy (CTC-based survey); assay type: in vivo, human
Method: Ten cases are described in which patients diagnosed with a variety of malignancies have voluntarily fasted prior to (48-140 hours) and/or following (24-56 hours) chemotherapy. None of these 10 patients, who received an average of 4 cycles of chemotherapy in combination with fasting, reported significant side effects caused by the fasting itself other than hunger. Toxicity was graded based on the Common Toxicity Criteria (CTC) of the National Cancer Institute (NCI) and self-reported side-effects from five patients indicate that fasting may protect against fatigue, weakness, and gastrointestinal side effects.
Self-reported assessments of all 10 patients were obtained to evaluate the severity of the side effects experienced. Since many of the chemo toxic side effects are cumulative, survey data was compared, including all the combined fasting- and non-fasting associated chemotherapy side effects (FIG. 17A). Toxicity was graded based on the Common Toxicity Criteria of National Cancer Institute. Encouragingly, better self-reported health outcomes were addressed by all the patients even though chemo-fasting cycles were mostly carried out in the later portion of the therapy. Nausea, vomiting, diarrhea, abdominal cramps, and mouth sores were virtually absent from the reports of all 10 patients whenever chemo-fasting cycles were administered, whereas at least one of these symptoms was reported by 5 out of the 6 ad lib fed patients (FIG. 17A). The four patients that always fasted in combination with all the chemo-treatments reported low severity for the majority of the side effects (FIGS. 12, 13, 14, 16). Only mild weakness and hair loss were reported by multiple patients. For the 6 patients that received chemotherapy in association with both, fasting or ad lib diet, the severity of the self-reported side effects was determined by considering only the two closest cycle of chemotherapy in which the patient had fasted or not. There was a general and major reduction in the severity of many of the self-reported side effects in combination with fasting (FIG. 17B).

[6] = test system: murine neuroblastoma (NXS2); test: Metastatic mouse model of neuroblastoma NXS2, survival; assay type: in vivo; settings: 16 mg/Kg
[7] = test system: B16 melanoma cells; test: Metastatic mouse model of melanoma; assay type: in vivo
Description: The effect of fasting on chemotherapy was studied in metastatic models generated by intravenous injections of murine breast cancer cells (4T1), melanoma cells (B16), and 2 neuroblastoma cell lines (NXS2 and Neuro-2a) in immunocompetent mice. Fasting potentiated chemotherapy and extended the survival of all mice models of metastatic cancer (FIGS. 24-28). In the metastatic model of melanoma, mice were sacrificed early to determine the effect of STS on metastases. […] For instance, lung metastases were found in 100% vs65% of mice that received DXR under normal feeding and fasting, respectively. In addition, unlike normally fed mice, metastases were not detected in the liver or spleen of fasted mice (FIG. 25).
Body weight was measured immediately before and after fasting.

[8] = test system: 17 different cancer cells; test: STS sensitization panel of 17 cancer cell lines, MTT; assay type: cell-based; settings: 0.5 g/L glucose, 1% FBS versus normal glucose, 10% FBS
Method: (§1) To model fasting in vitro, cancer cells were incubated in media containing serum collected from mice either fed ad lib or fasted for 48 hours. In agreement with results in mice, breast cancer cells (4T1) cultured in medium supplemented with serum from fasted mice were sensitized to both DXR and CP compared to the effect of incubation in serum from mice fed ad lib (FIG. 30). Because pronounced glucose and growth factor reduction (e.g., the 75% reduction in the growth factor IGF-I) are two key extracellular responses to fasting, cells were incubated in different glucose and serum concentrations based on blood glucose measurements from normally fed and fasted mice (FIG. 31), i.e., incubation in low glucose (0.5 g/L) with low serum (1% FBS), or normal glucose (1.0 and 2.0 g/L for human and murine cell lines respectively) with normal serum (10% FBS) for 24 hours before and also during drug treatment (FIG. 32). In agreement with the in vivo studies, glucose and serum restriction sensitized 15 out of 17 different cancer cells lines, including the murine melanoma (B16), glioma (GL26), and breast cancer (4T1) cells to DXR and/or CP (FIGS. 32-34). […]
(§2) Cytotoxicity was measured by the ability to reduce methylthiazolyldiphenyl-tetrazolium bromide (MTT). […] Absorbance was read at 570 nm using a microplate reader SpectraMax 250 (Molecular Devices) and SoftMax Pro 3.0 software (Molecular Devices).

[9] = test system: B16 melanoma cells; test: Comet assay, B16; assay type: cell-based, murine; settings: glucose 0.5 vs 2.0 g/L, 1% FBS
Method: as §3, §4

[10] = test system: GL26 glioma cells; test: Comet assay, GL26; assay type: cell-based, murine; settings: glucose 0.5 vs 2.0 g/L, 1% FBS
Method: as §3, §4

[11] = test system: melanoma (B16) cells; test: In vitro fasting (STS) and chemotherapy, MTT survival, B16; assay type: cell-based, murine; settings: rhIGF-I; glucose 0.5 vs 2.0 g/L, 1% FBS; DXR 16 μM
Method: as §1, with “32).” for “32). In agreement with the in vivo studies, glucose and serum restriction sensitized 15 out of 17 different cancer cells lines, including the murine melanoma (B16), glioma (GL26), and breast cancer (4T1) cells to DXR and/or CP (FIGS. 32-34).”
In vitro chemotherapy was performed by treating cells in medium containing chemotherapy for 24 hours. Optimum drug doses were determined for each individual cell line. […]
as §2

[12] = case 7, fasting 60-66 h prior, 8-24 h after

With `O=P1(N(CCCl)CCCl)NCCCO1` (stereo not shown) [CP, cyclophosphamide] the “sensitization by serum from fasted mice” value [1] was “sensitized”, the “DNA damage when combined with STS” value [2] was “synergistically increased DNA damage” and the “tumor size relative to CP treatment alone group” value [3] was “less than half”.

In the case of hemin, the “fasting-dependent sensitization to chemotherapy (CP)” value ([1]; HO-1 inducer, 10 μM, 24 h before and 24 h during CP) is reported as “partially reversed”.

For `CC(=O)O[C@@]12CO[C@@H]1C[C@H](O)[C@@]1(C)C(=O)[C@H](O)C3=C(C)[C@@H](OC(=O)[C@H](O)[C@@H](NC(=O)OC(C)(C)C)c4ccccc4)C[C@@](O)([C@@H](OC(=O)c4ccccc4)[C@H]21)C3(C)C` [DTX, docetaxel], the PSA level ([4]; case 3, 25 mg/m2 weekly, no fasting) was 40.6 ng/mL, the “PSA after 3 cycles of chemotherapy with fasting” value ([4]; case 3, reduced from 34.2, testosterone cream 1% applied before chemotherapy) was 6.43 ng/mL and the PSA level ([4]; case 3, upon restarting chemo-fasting treatments, 75 mg/m2) was “dropped immediately”. For the same compound, the “PSA levels throughout the cycles” value [4, 12] was “consistent decreasing trend”, the self-reported side effects ([5]; case 3, 75 mg/m2 with fasting, versus previous ad-lib cycles) was “considerably lower side effects” and the self-reported side effects ([5]; case 3, chemotherapy cycles without fasting) was “fatigue, weakness, metallic taste, dizziness, forgetfulness, short-term memory impairment and peripheral neuropathy”. For the same compound, the self-reported side effects [5, 12] was “almost non-existent except for mild vibratory sensation in their feet”.

For “Bevacizumab: Bevacizumab added into the DTX treatment”, the PSA ([4]; case 3, added to weekly DTX treatment) was “dropped significantly”.

For `COc1cccc2c1C(=O)c1c(O)c3c(c(O)c1C2=O)C[C@@](O)(C(=O)CO)C[C@@H]3O[C@H]1C[C@H](N)[C@H](O)[C@H](C)O1` [DXR, doxorubicin], the “Long-term survival (over 180 days)” value ([6]; 2 cycles of fasting) was 42%, the mortality ([6]; ad lib group) was 100% and the “metastases in the liver or spleen” value ([7]; fasted mice) was “not detected”. For the same compound, the “mice with lung metastases” value ([7]; normal feeding) was 100%, the “cancer cell lines sensitized by STS” value [8] was 15 out of 17 and the “sensitization by serum from fasted mice” value [1] was “sensitized”. For the same compound, the “DNA damage when combined with STS” value [9] was “synergistically increased DNA damage”, the “DNA damage when combined with STS” value [10] was “synergistically increased DNA damage” and the “DNA damage when combined with STS” value ([10]; listed as doxorubicin) was “additive”.

In the case of “IGF-I: rhIGF-I, growth factor added during glucose restriction”, the “effect on STS-dependent sensitization to DXR” value ([1]; rhIGF-I, glucose 0.5 vs 2.0 g/L, 1% FBS, DXR 16 μM) is reported as “reverses the sensitization” and the “effect on STS-dependent sensitization to DXR” value [11] is reported as “reverses the sensitization”.

With `CCN(CC)CCCC(C)Nc1ccnc2cc(Cl)ccc12` (stereo not shown) [chloroquine] the “cell death on inhibition of autophagy during STS” value ([1]; 5 μM, 48 hours, glucose restriction in low serum) was “further increased cell death”.

With `C=CC1=C(C)c2cc3[n-]c(cc4nc(cc5[n-]c(cc1n2)c(C)c5C=C)C(C)=C4CCC(=O)O)c(CCC(=O)O)c3C.[Zn+2]` [ZnPP, zinc protoporphyrin] the “sensitivity to chemotherapy (CP)” value ([1]; HO-1 inhibitor, 20 μM, 24 h before and 24 h during CP) was “sensitized cancer cells to chemotherapy”.
